What all share (type): physicochemical
A short description of data set [1]: Release of acetylsalicylic acid from chitosan (dialysis, UV). The settings on record: acetylsalicylic acid 100 mg, chitosan 250 mg, against tris buffer pH7. The method, then:
Acetylsalicylic acid (100 mg) and chitosan (various degrees of acetylation) (250 mg) were added to a diluted aqueous HCl solution at pH 2 (10 ml). The mixture was stirred for 30 minutes at 80° C., cooled to room temperature, transferred to a dialysis tube (cut off 12-14 kDa) and dialysed against tris buffer pH7 (100 ml). The amount of acetylsalicylic acid in the dialysate was determined by UV.
(§1) An experiment without chitosan was performed as a comparison.
The amounts of acetylsalicylic acid in dialysate are shown in Table 1 as a percentage of maximum detected amounts.

Data set [2] can be described thus: Release of warfarin from warfarin/chitosan (dialysis, UV 293 nm). The note with it: buffered solution pH 7.4. How it is done: The salt of warfarin/chitosan (from Example 7 above) (1.09 g) was suspended in a buffered solution with pH 7.4 (10 ml). The suspension was transferred into the dialysis tube (cut off 12-14 kDa) before the tube was transferred into a buffered solution of pH 7.4 (100 ml) under continuous stirring. 2 ml samples of the dialysate were taken at different times and the UV-absorbances measured with an UV-apparatus at 293 nm. As a control experiment, warfarin (0.38 g, 1.2 mmol) was dissolved in a buffered solution of pH 7.4 (10 ml) and transferred into the dialysis tube (cut off 12-14 kDa). 2 ml samples of the dialysate were taken at different times and the UV-absorbances measured with an UV-apparatus at 293 nm. The amounts of warfarin in dialysate are shown in Table 3 as a percentage of maximum detected amounts.

Data set [3] is described as follows: Effect of chitosan on availability of norfloxacin (dialysis, UV). The settings on record: norfloxacin 100 mg, against tris buffer pH 7. The method, then:
Norfloxacin (100 mg) and chitosan (FA=0.35, η=1250) (250 mg) were added to a diluted aqueous HCl solution pH 2 (10 ml). The mixture was stirred for 2 hours at 80° C., cooled to room temperature and dialysed against tris buffer pH 7 (100 ml). The amount of norfloxacin in dialysate was determined by UV.
as §1
The amounts of norfloxacin in dialysate are shown as a percentage of maximum detected amounts.

The nature of data set [4]: Release of paracetamol through a dialysis membrane with and without chitosan. The settings on record: 10 mM paracetamol in 154 mM NaCl, pH 4.5; 3 (w/v)% chitosan (FA 0.41, hydrochloride salt); followed for 2 days; FIG. 1. The method, then:
The chitosan used in this Example was prepared from a chitosan produced as described in WO 03/011912 (FA 0.41, [η]=1060 ml/g), which was depolymerized and at the same time converted to the chitosan hydrochloride salt using 3M ethanolic HCl. Excess ethanolic chitosan was removed, the chitosan washed with excess 70% ethanol, 96% ethanol and finally dried to obtain the chitosan hydrochloride salt. The intrinsic viscosity was determined to 200 ml/g, corresponding to a number-average molecular weight of 40 000 (Anthonsen et al., 1993, Carbohydr. Polym. (1993) 22 193-201). 10 mM Paracetamol was dissolved in 154 mM NaCl at pH 4.5. Each of the solutions containing salicylate or paracetamol was added to a small glass vial (10 ml) equipped with a dialysis membrane (d=14.3 mm, cut off 10-12 kDa). The glass vials were placed in a 1 litre reservoir containing 154 mM NaCl, pH 4.5. Samples of 3.0 ml were regularly withdrawn from the reservoir and the absorbance was measured at 297.0 nm (salicylic acid) and 243.3 nm (paracetamol). Each experiment was run with 6 parallels. The same experiment was performed with paracetamol and the salicylate solutions to which had been added 3 (w/v)% of the chitosan. […] No difference in the release profile of the neutral drug paracetamol with and without chitosan could be detected.

The nature of data set [5]: Release of salicylate through a dialysis membrane with and without chitosan. The note with it: 30 mM salicylate in 154 mM NaCl, pH 4.5; 3 (w/v)% chitosan (FA 0.41, hydrochloride salt); FIG. 2. How it is done:
The chitosan used in this Example was prepared from a chitosan produced as described in WO 03/011912 (FA 0.41, [η]=1060 ml/g), which was depolymerized and at the same time converted to the chitosan hydrochloride salt using 3M ethanolic HCl. Excess ethanolic chitosan was removed, the chitosan washed with excess 70% ethanol, 96% ethanol and finally dried to obtain the chitosan hydrochloride salt. The intrinsic viscosity was determined to 200 ml/g, corresponding to a number-average molecular weight of 40 000 (Anthonsen et al., 1993, Carbohydr. Polym. (1993) 22 193-201). 30 mM Salicylic acid was dissolved in distilled water upon addition of equimolar amounts of sodium hydroxide, and sodium chloride was added to a final concentration of 154 mM. The pH was adjusted to 4.5. Each of the solutions containing salicylate or paracetamol was added to a small glass vial (10 ml) equipped with a dialysis membrane (d=14.3 mm, cut off 10-12 kDa). The glass vials were placed in a 1 litre reservoir containing 154 mM NaCl, pH 4.5. Samples of 3.0 ml were regularly withdrawn from the reservoir and the absorbance was measured at 297.0 nm (salicylic acid) and 243.3 nm (paracetamol). Each experiment was run with 6 parallels. The same experiment was performed with paracetamol and the salicylate solutions to which had been added 3 (w/v)% of the chitosan. […]

`CC(=O)Oc1ccccc1C(=O)O` [No chitosan, Acetylsalicylic acid]: the “amount of acetylsalicylic acid in dialysate” value in data set [1] (time for dialysis 0.25 hours) is 52 percentage of maximum detected amounts; in data set [1] (time for dialysis 0.5 hours), 87 percentage of maximum detected amounts; in data set [1] (time for dialysis 1 hour), 97 percentage of maximum detected amounts; in data set [1] (time for dialysis 2 hours) it was 98 percentage of maximum detected amounts; in data set [1] (time for dialysis 19 hours), 99 percentage of maximum detected amounts.
On to `CC(=O)CC(c1ccccc1)c1c(O)c2ccccc2oc1=O` (stereo not shown) [Warfarin], for which the “amount of warfarin in dialysate” value in data set [2] (time 2½ hours) is 49.8 percentage of maximum detected amounts; in data set [2] (time 4 hours) it was 49.0 percentage of maximum detected amounts; in data set [2] (time 20 hours) it was 100 percentage of maximum detected amounts; in data set [2] (time ½ hours), 14.8 percentage of maximum detected amounts.
For the molecule `CCn1cc(C(=O)O)c(=O)c2cc(F)c(N3CCNCC3)cc21` [Without chitosan, Norfloxacin], the “amount of norfloxacin in dialysate” value in data set [3] (time for dialysis 0.25 hours) is 66 percentage of maximum detected amounts; in data set [3] (time for dialysis 0.5 hours), 72 percentage of maximum detected amounts; in data set [3] (time for dialysis 1 hour), 100 percentage of maximum detected amounts; in data set [3] (time for dialysis 2 hours), 100 percentage of maximum detected amounts; in data set [3] (time for dialysis 4 hours), 100 percentage of maximum detected amounts.
Turning to `CC(=O)Nc1ccc(O)cc1` [paracetamol, Paracetamol], the “release profile of paracetamol with and without chitosan” value in data set [4] is “No difference”.
For the molecule `O=C(O)c1ccccc1O` [salicylate, Salicylic acid], the “release of salicylate with and without chitosan” value in data set [5] is recorded as “clear difference”.

Values taken from patent US20060293216A1, “Pharmaceutical compositions comprising an active agent and chitosan for sustained drug release or mucoadhesion” (ADVANCED BIOPOLYMERS AS, priority 2003, published 2006).
